Laboratory results reported in US20220098203A1 (priority 2018, published 2022).
Like-named read-outs stand apart in the source and are kept apart here.

Assays:
[1] = target: T1, MAT2A homodimer (Homo sapiens, UniProt P31153); experiment: MAT2A biochemical assay (liberated phosphate, PiColorLock Gold); details: Table 5a; MAT2A biochemical assay; read-out: Enzyme Inhibition
T1 construct: inferred from the Ni sepharose purification and imidazole elution; made in house; host or cells: SF9 insect cells, recombinant baculovirus (Bac to Bac, pFASTBAC1)
Method in brief: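 Readout is liberated phosphate (PiColorLock Gold), stoichiometric with SAM production, quantified against a potassium phosphate standard curve. Enzyme: recombinant MAT2A homodimer from Sf9, equilibrated 60 min at 25 °C with compound before 60 min reaction with substrate mix containing 500 μM ATP and 400 μM L-methionine.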

[2] = test system: SAM in HCT116 MTAP-deleted cells; experiment: Cellular assay of target engagement (SAM), LC-MS/MS; format: cell-based, human; details: 72 h, read-out: Cell 72 h SAM Inhibition (MTAP −/−)
Protocol: Measurement of MAT2A activity in cells was made by direct quantitation of the abundance of the product of its enzymatic activity, SAM. Cancer cells were treated with candidate MAT2A inhibitors for a suitable incubation period, and the cells were then lysed using a reagent which quenched any further enzyme activity. Soluble metabolites including SAM were collected and SAM itself was directly measured from the lysate using quantitative LC-MS/MS.
A typical assay was performed using an HCT116 human colon carcinoma cell line which was genetically engineered to delete the MTAP gene (commercially available from Horizon Discovery). […] Cells were plated in 96-well dishes at appropriate cell density. Following 24 hours, cells were then treated with the candidate MAT2A inhibitor. […] Compound was then transferred to a working stock plate in cell culture media by adding 5 μL of compound in DMSO to 495 μL of cell culture media. This working stock was then added to cells via a further 5-fold dilution, by adding 25 μL of working stock to 100 μL of cells in culture media. Following compound addition, cells were incubated at 37° C./5% CO2 for 72 hrs.
To quantitate SAM levels following compound treatment, cells were gently washed once in ammonium carbonate buffer (75 mM at pH 7.4), placed on dry ice, and lysed with metabolite extraction buffer (80% cold methanol and 20% water (v/v) with acetic acid at 1M final concentration with 200 ng/mL deuterated d3-SAM as internal control). Following centrifugation at 4° C. at 3,200 rpm for 30 minutes, the supernatant was collected and stored at −80° C. until analysis by Liquid Chromatography with tandem Mass Spectrometry (LC-MS/MS). LC-MS/MS analysis was performed using an API6500 Mass Spectrometer (Sciex, Framingham, Mass., USA) operating in positive ion spray mode and equipped with a Waters UPLC Acquity (Waters, Milford, Mass., USA) BEH Amide column.

[3] = test system: HCT116 MTAP-/-; experiment: Inhibition of cellular proliferation (Cell Titer Glo), HCT116 MTAP-/-; format: cell-based, human; details: 4 days, read-out: 4 Day Relative Growth Inhibition (MTAP −/−)
Protocol: (§1) Test compound impact on cancer cell growth was assessed by treating cancer cells with compound for 4 days and then measuring proliferation using an ATP-based cell proliferation readout (Cell Titer Glo, Promega Corporation).
(§2) In a typical assay an isogenic pair of HCT116 human colon carcinoma cell lines which vary only in MTAP deletion status (HCT116 MTAP+/+ and HCT116 MTAP−/−) were plated in 96-well dishes at appropriate cell density. Following 24 hours, cells were then treated with the candidate MAT2A inhibitor. […] Compound was then transferred to a working stock plate in cell culture media by adding 5 μL of compound in DMSO to 495 μL of cell culture media. This working stock was then added to cells via a further 5-fold dilution, by adding 25 μL of working stock to 100 μL of cells in culture media. Following compound addition, cells were incubated at 37° C./5% CO2 for 4 days.
(§3) The plate was then covered with aluminum foil and shaken for 15 minutes to ensure complete mixing and full cell lysis. […] This luminescence measure was converted to a proliferation index by subtracting from each data point the ATP luminescence signal measured from a bank (no cells) well and dividing by the ATP luminescence signal measured in 0.2% DMSO control well adjusted for signal in blank well.

[4] = test system: HCT116 MTAP+/+; experiment: Inhibition of cellular proliferation (Cell Titer Glo), HCT116 MTAP+/+; format: cell-based; details: Homo sapiens, HCT-116, 96 h, Table 5a, 4 days, read-out: 4 Day Relative Growth Inhibition (MTAP +/+)
Protocol: as §1, §2, §3

[5] = Homo sapiens, HCT-116, Table 5a
[6] = Table 6, select pairs of compounds
[7] = Homo sapiens, HCT-116, 96 h, Table 5a

T1 sequence (P31153 whole entry): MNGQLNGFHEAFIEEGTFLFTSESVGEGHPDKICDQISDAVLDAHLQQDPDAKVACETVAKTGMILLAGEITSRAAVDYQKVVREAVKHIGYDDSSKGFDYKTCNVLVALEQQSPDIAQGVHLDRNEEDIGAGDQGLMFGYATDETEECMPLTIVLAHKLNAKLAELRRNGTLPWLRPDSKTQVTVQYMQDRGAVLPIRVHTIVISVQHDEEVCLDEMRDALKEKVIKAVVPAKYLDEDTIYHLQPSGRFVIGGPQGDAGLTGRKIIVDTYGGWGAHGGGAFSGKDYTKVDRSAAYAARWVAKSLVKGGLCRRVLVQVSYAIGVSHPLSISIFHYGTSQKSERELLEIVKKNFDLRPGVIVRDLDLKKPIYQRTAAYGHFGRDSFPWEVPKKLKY

| SMILES | IC50 [1] | IC50 [2, 5] | IC50 [2, 6] | IC50 [3, 7] | IC50 [3, 6] | IC50 [4] |
| --- | --- | --- | --- | --- | --- | --- |
| [2H]C([2H])([2H])Oc1ccc(N2C(=O)N(c3ccc4nn(CCC)cc4c3)Cc3ccc(OCC(F)F)nc32)cc1 [Example 123, 7-(2,2-difluoroethoxy)-1-(4-methoxy-d3-phenyl)-3-(2-propyl-2H-indazol-5-yl)-3,4-dihydropyrido[2,3-d]pyrimidin-2(1H)-one] | < 100 nM | < 100 nM |  | 100 to 1000 nM |  | > 1000 nM |
| CCOc1ccc2c(n1)N(c1ccc(OC)cc1)C(=O)N(c1ccc3c(c1)N(C)CCO3)C2 [Example 122, 7-ethoxy-1-(4-methoxyphenyl)-3-(4-methyl-3,4-dihydro-2H-benzo[b][1,4]oxazin-6-yl)-3,4-dihydropyrido[2,3-d]pyrimidin-2(1H)-one] | < 100 nM | 100 to 1000 nM |  | 100 to 1000 nM |  | > 1000 nM |
| Cn1cc2cc(N3Cc4ccc(OCC(F)F)nc4N(c4ccc5ncccc5c4)C3=O)ccc2n1 [Example 175, 7-(2,2-difluoroethoxy)-3-(2-methyl-2H-indazol-5-yl)-1-(quinolin-6-yl)-3,4-dihydropyrido[2,3-d]pyrimidin-2(1H)-one] | < 100 nM | < 100 nM |  | 100 to 1000 nM |  | 100 to 1000 nM |
| [2H]C([2H])([2H])Oc1ccc(N2C(=O)N(c3ccc4nn(CC(F)F)cc4c3)Cc3ccc(OCC(F)F)nc32)cc1 [Example 119, 7-(2,2-difluoroethoxy)-3-(2-(2,2-difluoroethyl)-2H-indazol-5-yl)-1-(4-methoxy-d3-phenyl)-3,4-dihydropyrido[2,3-d]pyrimidin-2(1H)-one] | < 100 nM | < 100 nM |  | 100 to 1000 nM |  | > 1000 nM |
| Cn1cc2cc(N3Cc4ccc(OCC(F)F)nc4N(c4ccc5[nH]nnc5c4)C3=O)ccc2n1 [Example 179, 1-(1H-benzo[d][1,2,3]triazol-5-yl)-7-(2,2-difluoroethoxy)-3-(2-methyl-2H-indazol-5-yl)-3,4-dihydropyrido[2,3-d]pyrimidin-2(1H)-one] | < 100 nM | > 1000 nM |  | > 1000 nM |  | > 1000 nM |
| CCOc1ccc2c(n1)N(c1ccc(OC(F)F)cc1)C(=O)N(c1ccc3nn(C)nc3c1)C2 [Example 110, 1-(4-(difluoromethoxy)phenyl)-7-ethoxy-3-(2-methyl-2H-benzo[d][1,2,3]triazol-5-yl)-3,4-dihydropyrido[2,3-d]pyrimidin-2(1H)-one] | < 100 nM | < 100 nM |  | 100 to 1000 nM |  | > 1000 nM |
| [2H]C([2H])([2H])Oc1ccc(N2C(=O)N(c3ccc4nn(CCC(F)(F)F)cc4c3)Cc3ccc(OCC(F)F)nc32)cc1 [Example 128, 7-(2,2-difluoroethoxy)-1-(4-methoxy-d3-phenyl)-3-(2-(3,3,3-trifluoropropyl)-2H-indazol-5-yl)-3,4-dihydropyrido[2,3-d]pyrimidin-2(1H)-one] | < 100 nM | 100 to 1000 nM |  | 100 to 1000 nM |  | > 1000 nM |
| CCOc1ccc2c(n1)N(c1ccc(OC(F)F)cc1)C(=O)N(c1ccc(=O)n(C)c1)C2 [Example 107, 1-(4-(difluoromethoxy)phenyl)-7-ethoxy-3-(1-methyl-6-oxo-1,6-dihydropyridin-3-yl)-3,4-dihydropyrido[2,3-d]pyrimidin-2(1H)-one] | < 100 nM | 100 to 1000 nM |  | 100 to 1000 nM |  | > 1000 nM |
| CCSc1ccc2c(n1)N(c1ccc(OC)cc1)C(=O)N(c1ccc3nn(C)cc3c1)C2 [Example 132, 7-(ethylthio)-1-(4-methoxyphenyl)-3-(2-methyl-2H-indazol-5-yl)-3,4-dihydropyrido[2,3-d]pyrimidin-2(1H)-one] | < 100 nM | 100 to 1000 nM | 100 to 1000 nM | 100 to 1000 nM | 100 to 1000 nM | > 1000 nM |
| CCOc1ccc2c(n1)N(c1ccc(OC)cc1)C(=O)N(c1ccc3nn(C)cc3c1)C2 [Example 143, 7-ethoxy-1-(4-methoxyphenyl)-3-(2-methyl-2H-indazol-5-yl)-3,4-dihydropyrido[2,3-d]pyrimidin-2(1H)-one] | < 100 nM | < 100 nM |  | 100 to 1000 nM |  | > 1000 nM |
| CCOc1ccc2c(n1)N(c1ccc(-c3nnc[nH]3)cc1)C(=O)N(c1ccc3ncn(C)c3c1)C2 [Example 154, 1-(4-(4H-1,2,4-triazol-3-yl)phenyl)-7-ethoxy-3-(1-methyl-1H-benzo[d]imidazol-6-yl)-3,4-dihydropyrido[2,3-d]pyrimidin-2(1H)-one] | < 100 nM | < 100 nM |  | 100 to 1000 nM |  | 100 to 1000 nM |

The next lines start with the values.

| IC50 [1] | IC50 [2, 5] | IC50 [2, 6] | IC50 [3, 7] | IC50 [3, 6] | IC50 [4] | SMILES |
| --- | --- | --- | --- | --- | --- | --- |
| < 100 nM | < 100 nM | < 100 nM | < 100 nM | < 100 nM | > 1000 nM | Cn1cc2cc(N3Cc4cnc(NCC(F)(F)F)nc4N(c4ccc(OC(F)F)cc4)C3=O)ccc2n1 [Example 216, 1-(4-(difluoromethoxy)phenyl)-3-(2-methyl-2H-indazol-5-yl)-7-((2,2,2-trifluoroethyl)amino)-3,4-dihydropyrimido[4,5-d]pyrimidin-2(1H)-one] |
| < 100 nM | < 100 nM |  | 100 to 1000 nM |  | > 1000 nM | O=C1N(c2ccc3c(c2)OCCO3)Cc2cnc(NCC(F)(F)F)nc2N1c1ccc(-c2nc[nH]n2)cc1 [Example 214, 1-(4-(1H-1,2,4-triazol-3-yl)phenyl)-3-(2,3-dihydrobenzo[b][1,4]dioxin-6-yl)-7-((2,2,2-trifluoroethyl)amino)-3,4-dihydropyrimido[4,5-d]pyrimidin-2(1H)-one] |
| < 100 nM | < 100 nM |  | < 100 nM |  | > 1000 nM | Cn1cc2cc(N3Cc4ccc(OCC(F)F)nc4N(c4ccc5oc(N)nc5c4)C3=O)ccc2n1 [Example 411, 1-(2-aminobenzo[d]oxazol-5-yl)-7-(2,2-difluoroethoxy)-3-(2-methyl-2H-indazol-5-yl)-3,4-dihydropyrido[2,3-d]pyrimidin-2(1H)-one] |
| < 100 nM | < 100 nM |  | < 100 nM |  | 100 to 1000 nM | [2H]C([2H])([2H])Oc1ccc(N2C(=O)N(c3ccc4nc(C)n(C)c4c3)Cc3cnc(NCC(F)(F)F)nc32)cc1 [Example 402, 3-(1,2-dimethyl-1H-benzo[d]imidazol-6-yl)-1-(4-(methoxy-d3)phenyl)-7-((2,2,2-trifluoroethyl)amino)-3,4-dihydropyrimido[4,5-d]pyrimidin-2(1H)-one] |
| < 100 nM | 100 to 1000 nM | 100 to 1000 nM | 100 to 1000 nM | 100 to 1000 nM | > 1000 nM | CCNc1ccc2c(n1)N(c1ccc(OC(F)F)cc1)C(=O)N(c1ccc3nn(C)cc3c1)C2 [Example 269] |
| < 100 nM | 100 to 1000 nM |  | 100 to 1000 nM |  | > 1000 nM | COc1ccc(N2C(=O)N(c3ccc4nccn4c3)Cc3cnc(NCC(F)(F)F)nc32)cc1 [Example 237] |
| 100 to 1000 nM | 100 to 1000 nM |  | > 1000 nM |  | > 1000 nM | COc1ccc(N2Cc3cnc(NCC(F)(F)F)nc3N(c3ccc(OC)nc3)C2=O)cc1 [Example 261] |
| < 100 nM | 100 to 1000 nM |  | 100 to 1000 nM |  | 100 to 1000 nM | COc1ccc(N2Cc3ncc(NCC(F)(F)F)nc3N(c3ccc(OC(F)F)cc3)C2=O)cc1 [Example 415, 1-(4-(difluoromethoxy)phenyl)-3-(4-methoxyphenyl)-7-((2,2,2-trifluoroethyl)amino)-3,4-dihydropteridin-2(1H)-one] |
